Patent US8609690B2, “Aryl- and heteroarylcarbonyl derivatives of substituted nortropanes, medicaments containing such compounds and their use” (Boehringer Ingelheim International GmbH, priority 2008, dated 2013)

target: T1, 11β-HSD 1 (Homo sapiens, UniProt P28845); test: In vitro inhibition of 11β-HSD 1, HTRF detection of cortisol generated by human liver microsomes; format: biochemical; settings: 1 μM test compound, 100% indicates no inhibition, zero or below zero indicates complete inhibition (relative to carbenoxolone)
T1 construct: detecting cortisol generated from cortisterone by human liver microsomes; from tissue; host or cells: human liver microsomes
T1 sequence (P28845 whole entry): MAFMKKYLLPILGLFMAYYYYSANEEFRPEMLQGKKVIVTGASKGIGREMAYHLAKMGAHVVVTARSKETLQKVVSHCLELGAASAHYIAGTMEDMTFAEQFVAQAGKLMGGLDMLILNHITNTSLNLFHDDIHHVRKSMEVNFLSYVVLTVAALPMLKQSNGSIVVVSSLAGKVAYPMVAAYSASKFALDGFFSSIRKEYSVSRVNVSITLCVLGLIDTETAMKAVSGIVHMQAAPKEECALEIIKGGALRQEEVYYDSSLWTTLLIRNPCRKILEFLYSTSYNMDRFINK
Procedure: Briefly, compounds were incubated for 1 hour at 37° C. in Tris buffer (20 mM tris, 5 mM EDTA, pH 6.0) containing NADPH (200 μM) and cortisone (80 nM). Cortisol generated in the reaction is then detected with a competitive immunoassay, involving two HTRF conjugates: cortisol linked to XL665 and anti-cortisol antibody labeled with Europium cryptate. The incubation period for detection reaction was typically 2 hours. The amount of cortisol is determined by reading the time-resolved fluorescence of the wells (Ex 320/75 nm; Em 615/8.5 nm and 665/7.5 nm). The ratio of the two emission signals is then calculated (Em665*10000/Em615). […] Each assay also contained a calibration curve with cortisol to transform the fluorescent data into cortisol concentrations. Percent inhibition of each compound was determined relative to the carbenoxolone signal. In Table 2 the 11β-HSD 1 inhibitory activities at 1 μM concentration of test compound, determined as described above, of the compounds listed in Table 3 are compiled, wherein 100% indicates no inhibition and a value of zero or below zero indicates complete inhibition.

In order of falling “Inhibitory activity on 11β-HSD 1, % CTL” value:
1. NCc1cccc([C@@H]2C[C@H]3CC[C@@H](C2)N3C(=O)c2ccc3c(c2)OCCO3)c1 [Example 147, exo-[3-(3-Aminomethyl-phenyl)-8-aza-bicyclo[3.2.1]oct-8-yl]-(2,3-dihydro-benzo[1,4]dioxin-6-yl)-methanone]  99 % CTL
2. Cc1cc(C(F)F)n2nc(C(=O)N3[C@@H]4CC[C@H]3C[C@@H](c3ccc(F)cc3)C4)nc2n1 [Example 162, endo-(7-Difluoromethyl-5-methyl-[1,2,4]triazolo[1,5-a]pyrimidin-2-yl)-[3-(4-fluoro-phenyl)-8-aza-bicyclo[3.2.1]oct-8-yl]-methanone]  96 % CTL
3. NCc1ccc(C2CC3CCC(C2)N3C(=O)c2ccc3c(c2)OCCO3)cc1 (centres unmarked) [Example 146, [3-(4-Aminomethyl-phenyl)-8-aza-bicyclo[3.2.1]oct-8-yl]-(2,3-dihydro-benzo[1,4]dioxin-6-yl)-methanone]  96 % CTL
4. Cc1ccc([C@H]2C[C@H]3CC[C@@H](C2)N3C(=O)c2ccc(OC3CSC3)cc2)cc1 [Example 32, endo-[4-(Thietan-3-yloxy)-phenyl]-(3-p-tolyl-8-aza-bicyclo[3.2.1]oct-8-yl)-methanone]  94 % CTL
5. Cc1ccc([C@H]2C[C@H]3CC[C@@H](C2)N3C(=O)c2ccco2)cc1 [Example 17, endo-Furan-2-yl-(3-p-tolyl-8-aza-bicyclo[3.2.1]oct-8-yl)-methanone]  93 % CTL
6. CNC(=O)c1ccc(C(=O)N2[C@@H]3CC[C@H]2C[C@@H](c2ccc(F)cc2)C3)cc1 [Example 79, endo-4-[3-(4-Fluoro-phenyl)-8-aza-bicyclo[3.2.1]octane-8-carbonyl]N-methyl-benzamide]  90 % CTL
7. O=C(c1nccc2ccccc12)N1[C@@H]2CC[C@H]1C[C@@H](c1ccc(F)cc1)C2 [Example 33, endo-[3-(4-Fluoro-phenyl)-8-aza-bicyclo[3.2.1]oct-8-yl]-isoquinolin-1-yl-methanone]  88 % CTL
8. Cc1cc(C(F)F)n2ncc(C(=O)N3[C@@H]4CC[C@H]3C[C@@H](c3ccc(F)cc3)C4)c2n1 [Example 4, endo-(7-Difluoromethyl-5-methyl-pyrazolo[1,5-a]pyrimidin-3-yl)-[3-(4-fluoro-phenyl)-8-aza-bicyclo[3.2.1]oct-8-yl]-methanone]  87 % CTL
9. COc1ccccc1C(=O)N1[C@@H]2CC[C@H]1C[C@@H](c1ccc(F)cc1)C2 [Example 110, endo-[3-(4-Fluoro-phenyl)-8-aza-bicyclo[3.2.1]oct-8-yl]-(2-methoxy-phenyl)-methanone]  87 % CTL
10. Cn1cnc2cc(C(=O)N3[C@@H]4CC[C@H]3C[C@@H](c3ccc(F)cc3)C4)ccc21 [Example 66, endo-[3-(4-Fluoro-phenyl)-8-aza-bicyclo[3.2.1]oct-8-yl]-(1-methyl-1H-benzoimidazol-5-yl)-methanone]  77 % CTL
11. O=C(c1ccco1)N1[C@@H]2CC[C@H]1C[C@@H](c1ccc(F)cc1)C2 [Example 34, endo-[3-(4-Fluoro-phenyl)-8-aza-bicyclo[3.2.1]oct-8-yl]-furan-2-yl-methanone]  75 % CTL
12. Cc1nc2ccc(C(=O)N3[C@@H]4CC[C@H]3C[C@@H](c3ccc(F)cc3)C4)cc2[nH]1 [Example 74, endo-[3-(4-Fluoro-phenyl)-8-aza-bicyclo[3.2.1]oct-8-yl]-(2-methyl-3H-benzoimidazol-5-yl)-methanone]  69 % CTL
13. CC(=O)c1cccc(C(=O)N2[C@@H]3CC[C@H]2C[C@@H](c2ccc(F)cc2)C3)c1 [Example 124, endo-1-{3-[3-(4-Fluoro-phenyl)-8-aza-bicyclo[3.2.1]octane-8-carbonyl]-phenyl}-ethanone]  59 % CTL
14. O=C(c1ccc(O)nc1)N1[C@@H]2CC[C@H]1C[C@@H](c1ccc(F)cc1)C2 [Example 102, endo-[3-(4-Fluoro-phenyl)-8-aza-bicyclo[3.2.1]oct-8-yl]-(6-hydroxy-pyridin-3-yl)-methanone]  47 % CTL
15. O=C(c1ccc(F)c(F)c1)N1[C@@H]2CC[C@H]1C[C@@H](c1ccc(F)cc1)C2 [Example 77, endo-(3,4-Difluoro-phenyl)-[3-(4-fluoro-phenyl)-8-aza-bicyclo[3.2.1]oct-8-yl]methanone]  47 % CTL
16. O=C(c1ccc2c(c1)OCCO2)N1[C@@H]2CC[C@H]1C[C@@H](c1ccc3ccccc3c1)C2 [Example 157, endo-(2,3-Dihydro-benzo[1,4]dioxin-6-yl)-(3-naphthalen-2-yl-8-aza-bicyclo[3.2.1]oct-8-yl)-methanone]  38 % CTL
17. O=C(c1ccc2scnc2c1)N1[C@@H]2CC[C@H]1C[C@@H](c1ccc(F)cc1)C2 [Example 93, endo-Benzothiazol-5-yl-[3-(4-fluoro-phenyl)-8-aza-bicyclo[3.2.1]oct-8-yl]-methanone]  38 % CTL
18. O=C(c1ccccc1)N1[C@@H]2CC[C@H]1C[C@@H](c1ccc(F)cc1)C2 [Example 96, endo-[3-(4-Fluoro-phenyl)-8-aza-bicyclo[3.2.1]oct-8-yl]-phenyl-methanone]  33 % CTL
19. O=C(c1ccc2c(c1)OCCO2)N1[C@@H]2CC[C@H]1C[C@@H](c1ccc(O)cc1)C2 [Example 142, endo-(2,3-Dihydro-benzo[1,4]dioxin-6-yl)-[3-(4-hydroxy-phenyl)-8-aza-bicyclo[3.2.1]oct-8-yl]-methanone]  31 % CTL
20. COc1cccc([C@H]2C[C@H]3CC[C@@H](C2)N3C(=O)c2ccc3c(c2)OCCO3)c1 [Example 139, endo-(2,3-Dihydro-benzo[1,4]dioxin-6-yl)-[3-(3-methoxy-phenyl)-8-aza-bicyclo[3.2.1]oct-8-yl]-methanone]  21 % CTL
21. O=C(c1ccc2nccnc2c1)N1[C@@H]2CC[C@H]1C[C@@H](c1ccc(F)cc1)C2 [Example 70, endo-[3-(4-Fluoro-phenyl)-8-aza-bicyclo[3.2.1]oct-8-yl]-quinoxalin-6-yl-methanone]  19 % CTL
22. CCn1ncc(C(=O)N2[C@@H]3CC[C@H]2C[C@@H](c2ccc(C)cc2)C3)c1C [Example 38, endo-(1-Ethyl-5-methyl-1H-pyrazol-4-yl)-(3-p-tolyl-8-aza-bicyclo[3.2.1]oct-8-yl)-methanone]  12 % CTL
23. O=C(c1cccc(O)c1)N1[C@@H]2CC[C@H]1C[C@@H](c1ccc(F)cc1)C2 [Example 129, endo-[3-(4-Fluoro-phenyl)-8-aza-bicyclo[3.2.1]oct-8-yl]-(3-hydroxy-phenyl)-methanone]  −1 % CTL
24. O=C(c1ccc(-c2cnco2)cc1)N1[C@@H]2CC[C@H]1C[C@@H](c1ccc(F)cc1)C2 [Example 87, endo-[3-(4-Fluoro-phenyl)-8-aza-bicyclo[3.2.1]oct-8-yl]-(4-oxazol-5-yl-phenyl)-methanone]  −2 % CTL
25. O=C(c1ccc2c(c1)OCO2)N1[C@@H]2CC[C@H]1C[C@@H](c1ccc(F)cc1)C2 [Example 114, endo-Benzo[1,3]dioxol-5-yl-[3-(4-fluoro-phenyl)-8-aza-bicyclo[3.2.1]oct-8-yl]-methanone]  −10 % CTL
26. O=C(c1ccc2c(c1)OCCO2)N1[C@@H]2CC[C@H]1C[C@@H](c1ccc(Br)cc1)C2 [Example 155, endo-[3-(4-Bromo-phenyl)-8-aza-icyclo[3.2.1]oct-8-yl]-(2,3-dihydro-benzo[1,4]dioxin-6-yl)-methanone]  −17 % CTL
27. O=C(c1ccc2[nH]ccc2c1)N1[C@@H]2CC[C@H]1C[C@@H](c1ccc(F)cc1)C2 [Example 113, endo-[3-(4-Fluoro-phenyl)-8-aza-bicyclo[3.2.1]oct-8-yl]-(1H-indol-5-yl)-methanone]  −23 % CTL
28. Cc1ccc(C(=O)N2[C@@H]3CC[C@H]2C[C@@H](c2ccc(F)cc2)C3)cc1C [Example 107, endo-(3,4-Dimethyl-phenyl)-[3-(4-fluoro-phenyl)-8-aza-bicyclo[3.2.1]oct-8-yl]-methanone]  −38 % CTL
29. O=C(c1ccc(O)c(C(F)(F)F)c1)N1[C@@H]2CC[C@H]1C[C@@H](c1ccc(F)cc1)C2 [Example 174, endo-[3-(4-Fluoro-phenyl)-8-aza-bicyclo[3.2.1]oct-8-yl]-(4-hydroxy-3-trifluoromethyl-phenyl)-methanone]  −40 % CTL
30. O=C(c1ccc2cc[nH]c2c1)N1[C@@H]2CC[C@H]1C[C@@H](c1ccc(F)cc1)C2 [Example 62, endo-[3-(4-Fluoro-phenyl)-8-aza-bicyclo[3.2.1]oct-8-yl]-(1H-indol-6-yl)-methanone]  −47 % CTL
31. Cn1ccc2ccc(C(=O)N3[C@@H]4CC[C@H]3C[C@@H](c3ccc(F)cc3)C4)cc21 [Example 53, endo-[3-(4-Fluoro-phenyl)-8-aza-bicyclo[3.2.1]oct-8-yl]-(1-methyl-1H-indol-6-yl)-methanone]  −55 % CTL
32. O=C(c1ccc2c(c1)CCCN2)N1[C@@H]2CC[C@H]1C[C@@H](c1ccc(F)cc1)C2 [Example 54, endo-[3-(4-Fluoro-phenyl)-8-aza-bicyclo[3.2.1]oct-8-yl]-(1,2,3,4-tetrahydro-quinolin-6-yl)-methanone]  −56 % CTL
